Assay results published in US7993627B2, “Methods for determining whether a compound alters the amount of at least one αβ (X-41) peptide and the amount of either total αβ or at least one αβ (X-40) peptide produced by a non-human mammal” (Elan Pharmaceuticals, Inc., priority 1996, dated 2011).
Where a SMILES comes first, the peptide text is derived from it. The star is where a group is joined. Cbz = O=C(OCc1ccccc1)*

Tests used:
[1] = test system: K695sw cells; experiment: Pulse-chase labeling and immunoprecipitation of chase media and cell lysates (APP processing); assay type: cell-based, human
Description: We first set out to reproduce the published results of Higaki et al. (1995) Neuron, 14:651-659 on the action of the compound MDL 28170 on APP processing, using human kidney 293 cells stably expressing APP695 with the Swedish FAD mutation (K695sw cells). Our experiments were done using a pulse-chase paradigm: K695sw cells were labeled for 2 hours with 35S-methionine and then chased for 2 hours in the presence of 200 μM MDL 28170. Aliquots of the chase media from treated and untreated cells were subjected to SDS-PAGE.
To address this question, we performed pulse-chase experiments on K695sw cells using different doses of MDL 28170, followed by sequential immunoprecipitation of the same media first with 21F12, a monoclonal antibody raised against amino acids 33-42 of Aβ (described above) which specifically precipitates Aβ peptides ending at position 42, and then with antibody 1282 which precipitates all forms of Aβ and p3 (Haass et al., (1992b) Nature 359:322-325) (FIG. 4A). […] Using MDL 28170 at 200 μM, the experiment was repeated four times and the results were quantitated by phosphorimaging (FIG. 4B).
All transfected cell lines described here carry derivatives of pCMV695, a plasmid carrying APP695 under control of the CMV promoter (Selkoe, (1988) Proc. Natl. Acad. Sci. 85:7341-7345) K695sw are human embryonic kidney 293 cells stably transfected with a construct carrying the AD-linked double (“Swedish”) mutation K595N/M596L (Citron et al. (1992) Nature, 360:672-674); K695717I are 293 cells stably transfected with APP695 carrying the mutation V717I (valine to isoleucine at position 717 in the APP770 numbering system). CHO695 are Chinese hamster ovary cells (CHO) stably transfected with pCMV695 (Oltersdorf (1990) J. Biol. Chem. 265:4432-4437) SKN695 are SK-N-SH human neuroblastoma cells stably transfected with pCMV695.
To analyze the effect of MDL 28170 on the processing of APP, cells were grown to confluence in two 10 cm dishes, pulse-labeled with 600 μCi of [^35S]-methionine in 4 ml of serum-free medium for 2 hours and then chased for 2 hours with 4 ml medium containing 10% fetal bovine serum and the indicated final concentration of MDL 28170 (initially dissolved at 200 mM. in DMSO). Control dishes were treated with DMSO alone.
Conditioned media and cell lysates were analyzed by immunoprecipitation, as described (Haass, et al. (1992) Nature 359:322-325). Polyclonal antibody R1736 to residues 595-611 of APP695 was used to precipitate α-APPs (Haass, (1994) J. Biol. Chem. 269:17741-17748). This antibody recognizes an epitope that is specific for the free COOH-terminus of α-cleaved APPs. Polyclonal antibody R1282 was generated to synthetic Aβ1-40 (Haass, et al. (1992) Nature 359:322-325). […]

[2] = test system: total Aβ and total p3; settings: literature; cited from earlier work

SMILES	β-secretase activity (β-cleaved APPs, antibody 192sw immunoprecipitation) ([1]; 200 μM during 2 h chase)	total Aβ [2]	total p3 [2]	Aβ(42) (antibody 21F12) ([1]; 1 μM PDBu, 2 h pulse 2 h chase)	p3(42) (antibody 21F12) ([1]; 1 μM PDBu, 2 h pulse 2 h chase)	total Aβ (subsequent R1282) ([1]; 1 μM PDBu, 2 h pulse 2 h chase)
CC(C)[C@H](NC(=O)OCc1ccccc1)C(=O)N[C@H](C=O)Cc1ccccc1 [MDL 28170] (Cbz-Val-Phe-aldehyde)	does not significantly inhibit					
CCCC(=O)O[C@@H]1[C@@H](C)[C@@]2(O)[C@@H](C=C(CO)C[C@]3(O)C(=O)C(C)=C[C@@H]23)[C@@H]2C(C)(C)[C@]12OC(=O)CCC [PDBu]		decrease	increase	decreases	increase	decreases
